Experimental data reported in ChEMBL document CHEMBL5537115, “New broad-spectrum and potent antibacterial agents with dual-targeting mechanism: Promoting FtsZ polymerization and disrupting bacterial membranes” (Eur J Med Chem, 2024).
Calls of active or inactive are those of the source. The calls are words filed in the database; no cut-off is given here.

Experiments:
Staphylococcus aureus [1] = test: Effect on proton gradient of cytoplasmic membrane in Staphylococcus aureus ATCC25923 at 1 ug/ml measured after 20 mins by diSC35 dye based analysis; assay type: functional, organism-based; details: Cytoplasm membrane, dose 1.0 µg/ml
Staphylococcus aureus [2] = test: Disruption of inner membrane in Staphylococcus aureus ATCC25923 at 0.5 ug/ml measured after 12 mins by PI staining based analysis; assay type: functional, organism-based; details: dose 0.5 µg/ml
Escherichia coli [3] = test: Disruption of outer membrane in Escherichia coli ATCC25922 at 16 ug/ml measured after 10 mins by NPN dye based analysis; assay type: functional, organism-based; details: dose 16.0 µg/ml
Streptococcus pyogenes [4] = test: Antibacterial activity against erythromycin-resistant Streptococcus pyogenes 2 clinical isolate assessed as bacterial growth inhibition incubated for 20 hrs by CLSI based broth microdilution method; assay type: functional
[5] = tested on: Staphylococcus epidermidis; test: Antibacterial activity against penicillin-resistant Staphylococcus epidermidis clinical isolate assessed as bacterial growth inhibition incubated for 20 hrs by CLSI based broth microdilution method; assay type: functional
Staphylococcus aureus [6] = test: Antibacterial activity against Staphylococcus aureus clinical isolate assessed as bacterial growth inhibition incubated for 20 hrs by CLSI based broth microdilution method; assay type: functional
Staphylococcus aureus [7] = test: Antibacterial activity against penicillin-resistant Staphylococcus aureus ATCC31007 assessed as bacterial growth inhibition incubated for 20 hrs by CLSI based broth microdilution method; assay type: functional
Staphylococcus aureus [8] = test: Antibacterial activity against methicillin-resistant Staphylococcus aureus ATCC43300 assessed as bacterial growth inhibition incubated for 20 hrs by CLSI based broth microdilution method; assay type: functional
Klebsiella pneumoniae = test: Antibacterial activity against Klebsiella pneumoniae ATCC BAA-1902 assessed as bacterial growth inhibition incubated for 20 hrs by CLSI based broth microdilution method; assay type: functional
Acinetobacter baumannii [9] = test: Antibacterial activity against Acinetobacter baumannii ATCC19606 assessed as bacterial growth inhibition incubated for 20 hrs by CLSI based broth microdilution method; assay type: functional
Escherichia coli [10] = test: Antibacterial activity against wild-type Escherichia coli BW25113 assessed as bacterial growth inhibition incubated for 20 hrs by CLSI based broth microdilution method; assay type: functional
Escherichia coli [11] = test: Antibacterial activity against penicillin-susceptible Escherichia coli ATCC25922 assessed as bacterial growth inhibition incubated for 20 hrs by CLSI based broth microdilution method; assay type: functional
Enterococcus faecium [12] = test: Antibacterial activity against vancomycin-susceptible Enterococcus faecium ATCC19434 assessed as bacterial growth inhibition incubated for 20 hrs by CLSI based broth microdilution method; assay type: functional
Enterococcus faecalis [13] = test: Antibacterial activity against vancomycin-susceptible Enterococcus faecalis ATCC29212 assessed as bacterial growth inhibition incubated for 20 hrs by CLSI based broth microdilution method; assay type: functional
Streptococcus pyogenes [14] = test: Antibacterial activity against erythromycin-susceptible Streptococcus pyogenes 1 assessed as bacterial growth inhibition incubated for 20 hrs by CLSI based broth microdilution method; assay type: functional
Staphylococcus aureus [15] = test: Antibacterial activity against erythromycin-susceptible Staphylococcus aureus ATCC25923 assessed as bacterial growth inhibition incubated for 20 hrs by CLSI based broth microdilution method; assay type: functional
Bacillus pumilus = test: Antibacterial activity against penicillin-susceptible Bacillus pumilus CMCC63202 assessed as bacterial growth inhibition incubated for 20 hrs by CLSI based broth microdilution method; assay type: functional
Bacillus subtilis [16] = test: Antibacterial activity against penicillin-susceptible Bacillus subtilis ATCC9372 assessed as bacterial growth inhibition incubated for 20 hrs by CLSI based broth microdilution method; assay type: functional
Enterococcus faecalis [17] = test: Antibacterial activity against vancomycin-resistant Enterococcus faecalis ATCC51299 assessed as bacterial growth inhibition incubated for 20 hrs by CLSI based broth microdilution method; assay type: functional
Enterococcus faecium [18] = test: Antibacterial activity against vancomycin-resistant Enterococcus faecium ATCC51559 assessed as bacterial growth inhibition incubated for 20 hrs by CLSI based broth microdilution method; assay type: functional
Acinetobacter baumannii [19] = test: Selectivity ratio of MBC for Acinetobacter baumannii ATCC19606 to MIC for Acinetobacter baumannii ATCC19606; assay type: functional
Acinetobacter baumannii [20] = test: Antibacterial activity against Acinetobacter baumannii ATCC19606 incubated for 18 to 24 hrs; assay type: functional; details: time 18-24 hrs
Staphylococcus aureus [21] = test: Selectivity ratio of MBC for Staphylococcus aureus clinical isolate to MIC for Staphylococcus aureus clinical isolate; assay type: functional
Staphylococcus aureus [22] = test: Antibacterial activity against Staphylococcus aureus clinical isolate incubated for 18 to 24 hrs; assay type: functional; details: time 18-24 hrs
Staphylococcus aureus [23] = test: Selectivity ratio of MBC for methicillin-resistant Staphylococcus aureus ATCC43300 to MIC for methicillin-resistant Staphylococcus aureus ATCC43300; assay type: functional
Bacillus subtilis [24] = test: Selectivity ratio of MBC for penicillin-susceptible Bacillus subtilis ATCC9372 to MIC for penicillin-susceptible Bacillus subtilis ATCC9372; assay type: functional
Bacillus subtilis [25] = test: Antibacterial activity against penicillin-susceptible Bacillus subtilis ATCC9372 incubated for 18 to 24 hrs; assay type: functional; details: time 18-24 hrs
Staphylococcus aureus [26] = test: Antibacterial activity against methicillin-resistant Staphylococcus aureus ATCC43300 incubated for 18 to 20 hrs; assay type: functional; details: time 18-20 hrs
Staphylococcus aureus [27] = test: Selectivity ratio of MBC for erythromycin-susceptible Staphylococcus aureus ATCC25923 to MIC for erythromycin-susceptible Staphylococcus aureus ATCC25923; assay type: functional
Staphylococcus aureus [28] = test: Antibacterial activity against erythromycin-susceptible Staphylococcus aureus ATCC25923 incubated for 18 to 24 hrs; assay type: functional; details: time 18-24 hrs

SMILES | Activity (Staphylococcus aureus [1]) | Activity (Staphylococcus aureus [2]) | Activity (Escherichia coli [3]) | MIC (Streptococcus pyogenes [4]) | MIC [5] | MIC (Staphylococcus aureus [6]) | MIC (Staphylococcus aureus [7]) | MIC (Staphylococcus aureus [8]) | MIC (Klebsiella pneumoniae) | MIC (Acinetobacter baumannii [9]) | MIC (Escherichia coli [10]) | MIC (Escherichia coli [11]) | MIC (Enterococcus faecium [12]) | MIC (Enterococcus faecalis [13]) | MIC (Streptococcus pyogenes [14]) | MIC (Staphylococcus aureus [15]) | MIC (Bacillus pumilus) | MIC (Bacillus subtilis [16]) | MIC (Enterococcus faecalis [17]) | MIC (Enterococcus faecium [18]) | further results
C[n+]1cc(-c2ccccc2)c(/C=C/c2ccccc2)cc1-c1ccc(C(C)(C)C)cc1 | inactive | Active | Active |  |  |  |  |  |  |  |  |  |  |  |  |  |  |  |  |  | 
C[n+]1cc(-c2ccccc2)c(/C=C/c2ccc(C(C)(C)C)cc2)cc1-c1ccccc1.[I-] | inactive | Active | Active | 2 µg/mL | 2 µg/mL | 0.5 µg/mL | 4 µg/mL | 0.5 µg/mL | 32 µg/mL | 4 µg/mL | 8 µg/mL | 8 µg/mL | 4 µg/mL | 4 µg/mL | 2 µg/mL | 0.25 µg/mL | 2 µg/mL | 0.5 µg/mL | 4 µg/mL | 2 µg/mL | 
Cc1cc(-c2ccccc2)[n+](C)cc1-c1ccccc1 | inactive |  |  |  |  |  |  |  |  |  |  |  |  |  |  |  |  |  |  |  | 
Cc1ccccc1-c1c[n+](C)c(-c2ccc(C(C)(C)C)cc2)cc1/C=C/c1ccc(N(C)C)cc1.[I-] |  |  |  | 2 µg/mL | 1 µg/mL | 0.25 µg/mL | 1 µg/mL | 0.5 µg/mL | 16 µg/mL | 1 µg/mL | 2 µg/mL | 4 µg/mL | 1 µg/mL | 2 µg/mL | 2 µg/mL | 0.125 µg/mL | 0.5 µg/mL | 0.5 µg/mL | 2 µg/mL | 0.5 µg/mL | Ratio (Acinetobacter baumannii [19]): 2; MBC (Acinetobacter baumannii [20]): 2 µg/mL; Ratio (Staphylococcus aureus [21]): 4; MBC (Staphylococcus aureus [22]): 1 µg/mL; Ratio (Staphylococcus aureus [23]): 1; Ratio (Bacillus subtilis [24]): 4; MBC (Bacillus subtilis [25]): 2 µg/mL; MBC (Staphylococcus aureus [26]): 0.5 µg/mL; Ratio (Staphylococcus aureus [27]): 2; MBC (Staphylococcus aureus [28]): 0.25 µg/mL
C[n+]1ccc(/C=C/c2ccccc2)c(-c2ccccc2)c1 | inactive |  |  |  |  |  |  |  |  |  |  |  |  |  |  |  |  |  |  |  | 
